Our source for the MIC, CC50 and Ratio values is ChEMBL document CHEMBL3352403, “New class of methyl tetrazole based hybrid of (Z)-5-benzylidene-2-(piperazin-1-yl)thiazol-4(%H)-one as potent antitubercular agents” (Bioorg Med Chem Lett, 2014).

Converted amounts (≈) assume the structure as drawn. “And” between values parts separate entries of the source, which are not always exact repeats. Equal values may be shown once.

By MIC is commonly meant the least concentration at which growth counts as inhibited. What is called CC50 is the concentration at which the toxic effect on the cells reaches its halfway point.

The subject of series [1] is Mycobacterium tuberculosis. In words: Antitubercular activity against Mycobacterium tuberculosis H37Rv after 4 weeks. Conditions: 672 h. The class given is functional.
Series [2] can be described thus: Cytotoxicity against african green monkey Vero cells after 24 hrs by MTS assay. Conditions: chlorocebus sabaeus. It counts as cell-based. For orientation: Formazan colour is commonly taken as a measure of viable cells.
Series [3] can be described thus: Cytotoxicity against mouse MBMDMphi cells after 48 hrs by MTS assay. It counts as cell-based.
Series [4] relates to Mycobacterium tuberculosis. Put plainly: Ratio of ethambutol MIC to compound MIC for Mycobacterium tuberculosis H37Rv after 4 weeks. The class given is functional.

`CC(C)(C)n1nnnc1C(c1ccccc1)N1CCN(C2=NC(=O)/C(=C/c3ccccc3)S2)CC1` (centres undefined): the minimum inhibitory concentration (MIC) in series [1] was greater than 12.5 µg/mL.
As for `CC(C)(C)n1nnnc1C(c1ccccc1F)N1CCN(C2=NC(=O)/C(=C/c3ccccc3)S2)CC1` (centres undefined), the MIC in series [1] was 6.25 µg/mL and 12.3 µM. Also, the 50% cytotoxic concentration (CC50) at 24 h in series [2] was greater than 100 µM. This compound also had a CC50 at 48 h in series [3] greater than 100 µM.
`CC(C)(C)n1nnnc1C(c1ccc(F)cc1)N1CCN(C2=NC(=O)/C(=C/c3ccccc3)S2)CC1` (centres undefined): the MIC in series [1] is 1.56 µg/mL and 3.08 µM. For the same compound, the 50% cytotoxic concentration (CC50) at 24 h in series [2] is greater than 100 µM. The Ratio in series [4] is on record as 3. For the same compound, the CC50 at 48 h in series [3] is greater than 100 µM.
Regarding `CC(C)(C)n1nnnc1C(c1ccccc1Cl)N1CCN(C2=NC(=O)/C(=C/c3ccccc3)S2)CC1` (centres undefined), the MIC in series [1] is 12.5 µg/mL and 23.9 µM. Besides, the CC50 at 24 h in series [2] is greater than 100 µM. The 50% cytotoxic concentration (CC50) at 48 h in series [3] was greater than 100 µM.
Take `CC(C)(C)n1nnnc1C(c1ccc(Cl)cc1)N1CCN(C2=NC(=O)/C(=C/c3ccccc3)S2)CC1` (centres undefined): in series [1], the MIC was 6.25 µg/mL and 11.9 µM. This compound also displayed a CC50 at 24 h in series [2] greater than 100 µM. In series [3], the CC50 at 48 h is greater than 100 µM.
The compound `CC(C)c1ccc(C(c2nnnn2C(C)(C)C)N2CCN(C3=NC(=O)/C(=C/c4ccccc4)S3)CC2)cc1` (centres undefined) had an MIC in series [1] greater than 12.5 µg/mL. This compound came in with a CC50 at 24 h in series [2] greater than 100 µM. In series [3], this compound gave a CC50 at 48 h greater than 100 µM.
In the case of `COc1ccc(C(c2nnnn2C(C)(C)C)N2CCN(C3=NC(=O)/C(=C/c4ccccc4)S3)CC2)cc1` (centres undefined), the MIC in series [1] is 1.56 µg/mL and 3.01 µM. Further, the CC50 at 24 h in series [2] is greater than 100 µM. Moreover, the Ratio in series [4] was 3. Further, in series [3], the CC50 at 48 h is greater than 100 µM.
With `COc1ccc(C(c2nnnn2C(C)(C)C)N2CCN(C3=NC(=O)/C(=C/c4ccccc4)S3)CC2)cc1OC` (centres undefined), the MIC in series [1] was 6.25 µg/mL and 11.4 µM. This compound also gave a CC50 at 24 h in series [2] greater than 100 µM. In series [3], this compound came in with a CC50 at 48 h greater than 100 µM.
Consider `COc1cc(C(c2nnnn2C(C)(C)C)N2CCN(C3=NC(=O)/C(=C/c4ccccc4)S3)CC2)cc(OC)c1OC` (centres undefined), for which, in series [1], the MIC is 6.25 µg/mL and 10.8 µM. The same compound had a CC50 at 24 h in series [2] greater than 100 µM. This compound displayed a CC50 at 48 h in series [3] greater than 100 µM.
As for `CC(C)(C)n1nnnc1C(c1ccncc1)N1CCN(C2=NC(=O)/C(=C/c3ccccc3)S2)CC1` (centres undefined), the MIC in series [1] was 6.25 µg/mL and 12.8 µM.
Consider `CC(C)(C)n1nnnc1C(c1cccnc1)N1CCN(C2=NC(=O)/C(=C/c3ccccc3)S2)CC1` (centres undefined), for which the minimal inhibitory concentration (MIC) in series [1] is 6.25 µg/mL and 12.8 µM. In series [2], this compound yielded a CC50 at 24 h greater than 100 µM. Moreover, in series [3], the CC50 at 48 h was greater than 100 µM.
Take `CC(C)(C)n1nnnc1C(c1ccoc1)N1CCN(C2=NC(=O)/C(=C/c3ccccc3)S2)CC1` (centres undefined): in series [1], the minimum inhibitory concentration (MIC) is 6.25 µg/mL and 13.1 µM. In series [2], this compound came in with a CC50 at 24 h greater than 100 µM. In addition, the CC50 at 48 h in series [3] stood at 45.9 µM.
For `O=C1N=C(N2CCN(C(c3ccccc3)c3nnnn3C3CCCCC3)CC2)S/C1=C\c1ccccc1` (centres undefined), the MIC in series [1] is 6.25 µg/mL and 12.1 µM. Besides, the half-maximal cytotoxic concentration (CC50) at 24 h in series [2] is greater than 100 µM. The compound further displayed a CC50 at 48 h in series [3] greater than 100 µM.
`O=C1N=C(N2CCN(C(c3ccccc3F)c3nnnn3C3CCCCC3)CC2)S/C1=C\c1ccccc1` (centres undefined) came in with a minimum inhibitory concentration (MIC) in series [1] of 12.5 µg/mL (≈ 23.5 µM).
`O=C1N=C(N2CCN(C(c3ccc(F)cc3)c3nnnn3C3CCCCC3)CC2)S/C1=C\c1ccccc1` (centres undefined): the MIC in series [1] is 6.25 µg/mL and 11.7 µM. For the same compound, the CC50 at 24 h in series [2] is greater than 100 µM. The CC50 at 48 h in series [3] was greater than 100 µM.
As for `O=C1N=C(N2CCN(C(c3ccccc3Cl)c3nnnn3C3CCCCC3)CC2)S/C1=C\c1ccccc1` (centres undefined), the minimal inhibitory concentration (MIC) in series [1] was 6.25 µg/mL and 11.4 µM. This compound also returned a CC50 at 24 h in series [2] greater than 100 µM. Moreover, the CC50 at 48 h in series [3] is greater than 100 µM.
On to `O=C1N=C(N2CCN(C(c3ccc(Cl)cc3)c3nnnn3C3CCCCC3)CC2)S/C1=C\c1ccccc1` (centres undefined), for which the minimum inhibitory concentration (MIC) in series [1] is 12.5 µg/mL and 22.8 µM.
With `CC(C)c1ccc(C(c2nnnn2C2CCCCC2)N2CCN(C3=NC(=O)/C(=C/c4ccccc4)S3)CC2)cc1` (centres undefined), the MIC in series [1] was 6.25 µg/mL and 11.2 µM. The same compound displayed a CC50 at 24 h in series [2] greater than 100 µM. This compound had a CC50 at 48 h in series [3] greater than 100 µM.
For the compound `COc1ccc(C(c2nnnn2C2CCCCC2)N2CCN(C3=NC(=O)/C(=C/c4ccccc4)S3)CC2)cc1` (centres undefined), the minimal inhibitory concentration (MIC) in series [1] was 6.25 µg/mL and 11.5 µM.
With `COc1ccc(C(c2nnnn2C2CCCCC2)N2CCN(C3=NC(=O)/C(=C/c4ccccc4)S3)CC2)cc1OC` (centres undefined), in series [1], the MIC is 6.25 µg/mL and 10.9 µM.
Consider `COc1cc(C(c2nnnn2C2CCCCC2)N2CCN(C3=NC(=O)/C(=C/c4ccccc4)S3)CC2)cc(OC)c1OC` (centres undefined), for which, in series [1], the MIC is 6.25 µg/mL and 10.3 µM. This compound had a CC50 at 24 h in series [2] greater than 100 µM. In series [3], this compound displayed a CC50 at 48 h greater than 100 µM.
Take `O=C1N=C(N2CCN(C(c3ccncc3)c3nnnn3C3CCCCC3)CC2)S/C1=C\c1ccccc1` (centres undefined): the MIC in series [1] was 6.25 µg/mL and 12.1 µM.
For the compound `O=C1N=C(N2CCN(C(c3cccnc3)c3nnnn3C3CCCCC3)CC2)S/C1=C\c1ccccc1` (centres undefined), the MIC in series [1] was 6.25 µg/mL and 12.1 µM.
In the case of `O=C1N=C(N2CCN(C(c3ccoc3)c3nnnn3C3CCCCC3)CC2)S/C1=C\c1ccccc1` (centres undefined), the MIC in series [1] was 6.25 µg/mL and 12.4 µM.
For the compound `CC[C@@H](CO)NCCN[C@@H](CC)CO` [ETHAMBUTOL], in series [1], the MIC is 2 µg/mL and 9.78 µM.
Still for that read-out and setting: then `NNC(=O)c1ccncc1` [ISONIAZID], with 0.02 µg/mL and 0.14 µM; and `NC(=O)c1cnccn1` [PYRAZINAMIDE], with 12.5 µg/mL and 102 µM.
